Data on 21 molecules can be found in US5318776A, “Composition for preventing graying of the hair” (priority 1988, dated 1994).

One series relates to grayed hair. Briefly: Half-Head technique application to scalp of men having grayed hair. The format is in vivo, men (40 to 60 years old). Here is the method:
Then, the effects of preventing graying of the hair and restoring grayed hair to its natural color were evaluated by comparing the conditions of the portions observed before and after the application of Samples and the results obtained were listed in the following Table VIII. […]
Then, the effectiveness of the hair cream of the invention and that of Comp.

Series [1] in a line: Sensory test: degree of change in smell after standing at 30° C. for 3 months.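 For Stability S.E. (Sensory Evaluation): double circle means no smell deterioration on a four-grade scale.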 The series is classed as physicochemical. As to conditions: for Stability S.E. (Sensory Evaluation) / deterioration in smell (in words): 30° C., 3 months. Here is the method:
(§1) One month thereafter, regenerated hair was collected from a constant area and the rate (%) of generated grayed hair to all the number of hair collected was estimated. In addition, the aforementioned hair tonic type preparations were allowed to stand at 30° C. for 3 months and the residual amount of the test compounds therein was examined by liquid chromatography as well as the degree of change in smell was also evaluated by means of sensory test.
(§2) One month thereafter, regenerated hair was collected from a constant area and the rate (%) of generated grayed hair to all the number of hair collected was estimated. In addition, the aforementioned compositions were allowed to stand at 30° C. for 3 months and the residual amount of the test compounds therein was examined by liquid chromatography as well as the degree of change in smell was also evaluated by sensory test. […] In addition, the abbreviation P means the averaged added molar number of ethylene oxide residues.

The test system of series [2] is grayed hair (melanocytes). In words: Inhibition of generation of grayed hair in stressed black mice. As to conditions: for Rate of Grayed Hair (%): 0.1 ml twice a day, 1 month. The series is classed as in vivo. Here is the method:
It is known that stress is one of the causes of graying of the hair. […] Moreover, the stability of the composition with time was also estimated.
as §1, §2

Series [3] in a line: Stability: residual amount of test compound after standing at 30° C. for 3 months, liquid chromatography. The series is classed as physicochemical. Here is the method:
as §1, §2

Setting [4] is: Examples 3 to 5, Half-Head, men, 3 months.
Setting [5] is: Table III, 0.1% test compound in hair tonic, control 16.5.
Setting [6] is: hair tonic, Table III, 0.1% in hair tonic, 30° C., 3 months, read-out: Stability Residue(%).
[7] abbreviates: Example 7, hair cream as in Example 5.
Setting [8] is: Table V, 0.05% test compound in hair tonic, control 17.1.
Setting [9] is: hair tonic, Table V, 0.05% in hair tonic, 30° C., 3 months, read-out: Stability Residue(%).
The mark [10] stands for this setting: Example 6, hair tonic as in Example 3.

Like-named read-outs stand apart in the source and are kept apart here.

Take `O=P1(O)OC[C@H]2O[C@@H](n3cnc4c3ncn3ccnc43)[C@H](O)[C@@H]2O1` [1,N^6 -etheno cAMP-K]: the “effect of preventing graying of the hair and restoring grayed hair to its natural color (in words)” value (“effect of preventing graying … (in words)” below) with grayed hair (setting [4]) was “remarkable effects of preventing graying of the hair and restoring grayed hair to its natural color”.

For the molecule `O=P1(O)OC[C@H]2O[C@@H](n3cnc4c3ncn3ccnc43)[C@H](O)[C@@H]2O1` [1,N^6 -etheno cAMP], the “Stability S.E. (Sensory Evaluation)” value in series [1] (Table III, 0.1% in hair tonic) was “.circleincircle”. For the same molecule, in series [2] (setting [5]), the “Rate of Grayed Hair (%)” value was 7.5%. Also, the remaining at 2190 h in series [3] (setting [6]) stood at 99.8%.

Take `CCCCn1cnc2c(ncn2[C@@H]2O[C@@H]3COP(=O)([O-])O[C@H]3[C@H]2O)c1=N.[Na+]` [1-butyl cAMP-Na]: the “quality deterioration such as giving out of bad smell” value (shortened to “quality deterioration such”) in series [1] (Example 7, hair cream) is recorded as “did not cause quality deterioration such as giving out of bad smell”. The “stability (in words)” value in series [3] (Example 7, hair cream) is on record as “stable”. The “effect of preventing graying … (in words)” value in the series with grayed hair (setting [7]) was “the same effect of preventing graying of the hair and restoring grayed hair to its natural color as in Example 5”.

Turning to `CCn1cnc2c(ncn2[C@@H]2O[C@@H]3COP(=O)([O-])O[C@H]3[C@H]2O)c1=N.[Na+]` [1-ethyl cAMP-Na], the “quality deterioration such” value in series [1] (Example 7, hair cream) is “did not cause quality deterioration such as giving out of bad smell”. Moreover, the “stability (in words)” value in series [3] (Example 7, hair cream) is “stable”. Also, the “effect of preventing graying … (in words)” value with grayed hair (setting [7]) is “the same effect of preventing graying of the hair and restoring grayed hair to its natural color as in Example 5”.

As for `CCN(CC)CC.Cn1cnc2c(ncn2[C@@H]2O[C@@H]3COP(=O)(O)O[C@H]3[C@H]2O)c1=N` [1-methyl cAMP-triethylammonium], the “effect of preventing graying … (in words)” value in the series on grayed hair (setting [4]) was “remarkable effects of preventing graying of the hair and restoring grayed hair to its natural color”.

In the case of `Cn1cnc2c(ncn2[C@@H]2O[C@@H]3COP(=O)(O)O[C@H]3[C@H]2O)c1=N` [1-methyl cAMP], the “Stability S.E. (Sensory Evaluation)” value in series [1] (Table III, 0.1% in hair tonic) is recorded as “.circleincircle”. Moreover, the “Rate of Grayed Hair (%)” value in series [2] (setting [5]) came out at 8.2%. Moreover, in series [3] (Table III, 0.1% in hair tonic, 30° C., 3 months, 131400 min), the “Stability Residue(%)” value came out at 99.6%.

In the case of `CCCCCCCCn1cnc2c(ncn2[C@@H]2O[C@@H]3COP(=O)([O-])O[C@H]3[C@H]2O)c1=N.[Na+]` [1-octyl cAMP-Na], the “quality deterioration such” value in series [1] (Example 7, hair cream) is “did not cause quality deterioration such as giving out of bad smell”. The “stability (in words)” value in series [3] (Example 7, hair cream) is on record as “stable”. Besides, in the series with grayed hair (setting [7]), the “effect of preventing graying … (in words)” value is “the same effect of preventing graying of the hair and restoring grayed hair to its natural color as in Example 5”.

With `Nc1ncnc2c1nc(Sc1ccc(Cl)cc1)n2[C@@H]1O[C@@H]2COP(=O)(O)O[C@H]2[C@H]1O` [8-4-chlorophenylthio cAMP-Na], the “Stability S.E. (Sensory Evaluation)” value in series [1] (Table V, 0.05% in hair tonic) was “.circleincircle”. In addition, in series [2] (setting [8]), the “Rate of Grayed Hair (%)” value is reported as 6.0%. In addition, the remaining at 2190 h in series [3] (setting [9]) was found to be 99.9%.

In the case of `Nc1ncnc2c1nc(SCc1ccccc1)n2[C@@H]1O[C@@H]2COP(=O)(O)O[C@H]2[C@H]1O` [8-benzylthio cAMP-Na], the “quality deterioration such” value in series [1] (Example 6, hair tonic) is recorded as “did not cause quality deterioration such as giving out of bad smell”. Also, in series [3] (Example 6, hair tonic), the “stability (in words)” value is on record as “stable”. In addition, the “effect of preventing graying … (in words)” value with grayed hair (setting [10]) was “the same effect of preventing graying of the hair and restoring grayed hair to its natural color as in Example 3”.

As for `Nc1ncnc2c1nc(SCc1ccccc1)n2[C@@H]1O[C@@H]2COP(=O)(O)O[C@H]2[C@H]1O` [8-benzylthio cAMP], in series [1] (Table III, 0.1% in hair tonic), the “Stability S.E. (Sensory Evaluation)” value was “.circleincircle”. For the same molecule, the “Rate of Grayed Hair (%)” value in series [2] (setting [5]) came to 7.2%. Moreover, the remaining at 2190 h in series [3] (setting [6]) was 100%.

Turning to `CCCCOc1nc2c(N)ncnc2n1[C@@H]1O[C@@H]2COP(=O)(O)O[C@H]2[C@H]1O` [8-butoxy cAMP-Na], the “quality deterioration such” value in series [1] (Example 6, hair tonic) is on record as “did not cause quality deterioration such as giving out of bad smell”. Also, the “Stability S.E. (Sensory Evaluation)” value in series [1] (Table V, 0.05% in hair tonic) is on record as “.circleincircle”. In addition, the “Rate of Grayed Hair (%)” value in series [2] (setting [8]) is reported as 6.0%. The “stability (in words)” value in series [3] (Example 6, hair tonic) is “stable”. Further, the remaining at 2190 h in series [3] (setting [9]) was 99.9%. For the same molecule, in the series with grayed hair (setting [10]), the “effect of preventing graying … (in words)” value was “the same effect of preventing graying of the hair and restoring grayed hair to its natural color as in Example 3”.

Regarding `CCCCNc1nc2c(N)ncnc2n1[C@@H]1O[C@@H]2COP(=O)(O)O[C@H]2[C@H]1O` [8-butylamino cAMP-Na], the “quality deterioration such” value in series [1] (Example 7, hair cream) is listed as “did not cause quality deterioration such as giving out of bad smell”. In addition, the “Stability S.E. (Sensory Evaluation)” value in series [1] (Table V, 0.05% in hair tonic) is given as “.circleincircle”. In addition, the “Rate of Grayed Hair (%)” value in series [2] (setting [8]) stood at 7.1%. Further, in series [3] (Example 7, hair cream), the “stability (in words)” value was “stable”. Also, the remaining at 2190 h in series [3] (setting [9]) worked out at 99.5%. Also, in the series with grayed hair (setting [7]), the “effect of preventing graying … (in words)” value is “the same effect of preventing graying of the hair and restoring grayed hair to its natural color as in Example 5”.

On to `Nc1ncnc2c1nc(Cl)n2[C@@H]1O[C@@H]2COP(=O)(O)O[C@H]2[C@H]1O` [8-chloro cAMP-Na], for which the “quality deterioration such” value in series [1] (Example 7, hair cream) is “did not cause quality deterioration such as giving out of bad smell”. Moreover, the “stability (in words)” value in series [3] (Example 7, hair cream) is “stable”. The “effect of preventing graying … (in words)” value in the series on grayed hair (setting [7]) was “the same effect of preventing graying of the hair and restoring grayed hair to its natural color as in Example 5”.

Turning to `Nc1ncnc2c1nc(F)n2[C@@H]1O[C@@H]2COP(=O)(O)O[C@H]2[C@H]1O` [8-fluoro cAMP], the “Stability S.E. (Sensory Evaluation)” value in series [1] (Table III, 0.1% in hair tonic) is listed as “.circleincircle”. The “Rate of Grayed Hair (%)” value in series [2] (setting [5]) is listed as 7.6%. For the same molecule, the remaining at 2190 h in series [3] (setting [6]) was determined as 99.5%.

Take `COc1nc2c(N)ncnc2n1[C@@H]1O[C@@H]2COP(=O)(O)O[C@H]2[C@H]1O` [8-methoxy cAMP]: the “Stability S.E. (Sensory Evaluation)” value in series [1] (Table III, 0.1% in hair tonic) is “.circleincircle”. Also, the “Rate of Grayed Hair (%)” value in series [2] (setting [5]) was found to be 7.8%. Also, the remaining at 2190 h in series [3] (setting [6]) was 99.7%.

On to `CNc1nc2c(N)ncnc2n1[C@@H]1O[C@@H]2COP(=O)(O)O[C@H]2[C@H]1O` [8-methylamino cAMP-Na], for which the “quality deterioration such” value in series [1] (Example 7, hair cream) is given as “did not cause quality deterioration such as giving out of bad smell”. The “stability (in words)” value in series [3] (Example 7, hair cream) is on record as “stable”. Also, the “effect of preventing graying … (in words)” value in the series with grayed hair (setting [7]) is “the same effect of preventing graying of the hair and restoring grayed hair to its natural color as in Example 5”.

As to `CSc1nc2c(N)ncnc2n1[C@@H]1O[C@@H]2COP(=O)(O)O[C@H]2[C@H]1O` [8-methylthio cAMP-Na], the “quality deterioration such” value in series [1] (Example 7, hair cream) was “did not cause quality deterioration such as giving out of bad smell”. In addition, the “stability (in words)” value in series [3] (Example 7, hair cream) is on record as “stable”. The “effect of preventing graying … (in words)” value in the series on grayed hair (setting [7]) is “the same effect of preventing graying of the hair and restoring grayed hair to its natural color as in Example 5”.

With `CSc1nc2c(N)ncnc2n1[C@@H]1O[C@@H]2COP(=O)(O)O[C@H]2[C@H]1O` [8-methylthio cAMP], the “Stability S.E. (Sensory Evaluation)” value in series [1] (Table III, 0.1% in hair tonic) is “.circleincircle”. In addition, the “Rate of Grayed Hair (%)” value in series [2] (setting [5]) was found to be 8.0%. The remaining at 2190 h in series [3] (setting [6]) worked out at 99.9%.

Consider `Nc1ncnc2c1nc(Sc1ccccc1)n2[C@@H]1O[C@@H]2COP(=O)(O)O[C@H]2[C@H]1O` [8-phenylthio cAMP], for which the “Stability S.E. (Sensory Evaluation)” value in series [1] (Table III, 0.1% in hair tonic) was “.circleincircle”. In addition, in series [2] (setting [5]), the “Rate of Grayed Hair (%)” value is on record as 7.1%. Moreover, the remaining at 2190 h in series [3] (setting [6]) was 100%.

Take `CCCC(=O)Nc1ncnc2c1ncn2[C@@H]1O[C@@H]2COP(=O)(O)O[C@H]2[C@H]1OC(=O)CCC` [N^6,O^2' -dibutyryl cAMP, reference compound]: the “deterioration in smell (in words)” value in series [1] (Example 1) is on record as “high deterioration in smell”. Also, the “effect of inhibiting generation of grayed hair (in words)” value in series [2] (Example 1, 0.1%) is “exhibits the grayed hair inhibitory effect”. For the same molecule, in series [2] (setting [5]), the “Rate of Grayed Hair (%)” value was found to be 9.1%. The same molecule registered a remaining at 2190 h in series [3] (hair tonic, Stability Residue(%)) of 86.4%.

Take `CCCC(=O)Nc1ncnc2c1ncn2[C@@H]1O[C@@H]2COP(=O)(O)O[C@H]2[C@H]1OC(=O)CCC` [N^6,O^2' -dibutyryl cAMP-Na, reference compound]: the “deterioration in smell (in words)” value in series [1] (Example 2) was “substantial deterioration in smell”. Besides, in series [2] (Example 2, 0.05%), the “effect of inhibiting generation of grayed hair (in words)” value was “exhibits the aforementioned effect”. The “Rate of Grayed Hair (%)” value in series [2] (setting [8]) was determined as 8.8%. In addition, the “Stability Residue(%)” value in series [3] (hair tonic, 2190 h) is given as 84.5%.
